Drawing on patent US10246466B2, “Diaryl macrocycles as modulators of protein kinases” (TP THERAPEUTICS, INC., priority 2014, dated 2019), this text covers IC50 and Kd for 19 compounds.

For test [1], the system named is T cell lymphoma Karpas-299 cell line (harboring endogenous NPM-ALK fusion gene). The test can be described thus: Karpas-299 cell proliferation assay (CellTiter-Glo). Format: cell-based. The conditions noted are these: Homo sapiens, 72 hours incubation, read-out: Karpas 299 cell proli. IC50. A general note: ATP-based viability assays read luminescence as a measure of living cells.

The subject of test [2] is Colorectal cell line KM12 (harboring endogenous TPM3-TRKA fusion gene). As to the kind of experiment: KM12 cell proliferation assay (CellTiter-Glo). It counts as cell-based. The conditions noted are these: Homo sapiens, 72 hours incubation, read-out: KM 12 cell prolif. IC50. How it is done: Colorectal cell lines KM 12 (harboring endogenous TPM3-TRKA fusion gene) cells were cultured in DMEM medium, supplemented with 10% fetal bovine serum and 100 U/mL of penicillin/streptomycin. 5000 cells were seeded in 384 well white plate for 24 hours before compounds treatment. Cell proliferation was measured using CellTiter-Glo luciferase-based ATP detection assay (Promega) following the manufactures's protocol after 72 hours incubation. IC50 determinations were performed using GraphPad Prism software (GraphPad, Inc., San Diego, Calif.).
Alternatively: Colorectal cell line KM12 (harboring endogenous TPM3-TRKA fusion gene) cells were cultured in DMEM medium, supplemented with 10% fetal bovine serum and 100 U/mL of penicillin/streptomycin. […] 5000 cells were seeded in 384 well white plate for 24 hours before compounds treatment. Cell proliferation was measured using CellTiter-Glo luciferase-based ATP detection assay (Promega) following the manufactures's protocol after 72 hours incubation. IC50 determinations were performed using GraphPad Prism software (GraphPad, Inc., San Diego, Calif.).

The next test has as its target TRKA (Homo sapiens (Human), UniProt P04629). The test can be described thus: KINOMEscan kinase binding assay (DiscoveRx). How it is done: Kinase binding assays were performed at DiscoveRx using the general KINOMEscan Kd Protocol (Fabian, M. A. et al., “A small molecule-kinase interaction map for clinical kinase inhibitors,” Nat. Biotechnol. 2005, 23(3):329-36). For most assays, kinase-tagged T7 phage strains were prepared in an E. coli host derived from the BL21 strain. E. coli were grown to log-phase and infected with T7 phage and incubated with shaking at 32° C. until lysis. The lysates were centrifuged and filtered to remove cell debris. The remaining kinases were produced in HEK-293 cells and subsequently tagged with DNA for qPCR detection. Streptavidin-coated magnetic beads were treated with biotinylated small molecule ligands for 30 minutes at room temperature to generate affinity resins for kinase assays. The liganded beads were blocked with excess biotin and washed with blocking buffer (SeaBlock (Pierce), 1% BSA, 0.05% Tween 20, 1 mM DTT) to remove unbound ligand and to reduce nonspecific binding. […] All reactions were performed in polystyrene 96-well plates in a final volume of 0.135 mL. […] The beads were then re-suspended in elution buffer (1×PBS, 0.05% Tween 20, 0.5 μM non-biotinylated affinity ligand) and incubated at room temperature with shaking for 30 minutes. The kinase concentration in the eluates was measured by qPCR.

Test [3] deals with Essential thrombocythemia cell line SET-2 cells (harboring endogenous JAK2 point mutation). The test can be described thus: SET-2 cell proliferation assay (CellTiter-Glo). Format: cell-based. The conditions noted are these: Homo sapiens, 72 hours incubation, read-out: SET2 cell proli. IC50.
The next test deals with JAK2 (Homo sapiens (Human), UniProt O60674). As to the kind of experiment: KINOMEscan kinase binding assay (DiscoveRx). As for the experimental part: For most assays, kinase-tagged T7 phage strains were prepared in an E. coli host derived from the BL21 strain. E. coli were grown to log-phase and infected with T7 phage and incubated with shaking at 32° C. until lysis. The lysates were centrifuged and filtered to remove cell debris. The remaining kinases were produced in HEK-293 cells and subsequently tagged with DNA for qPCR detection. […] The liganded beads were blocked with excess biotin and washed with blocking buffer (SeaBlock (Pierce), 1% BSA, 0.05% Tween 20, 1 mM DTT) to remove unbound ligand and to reduce nonspecific binding. […] All reactions were performed in polystyrene 96-well plates in a final volume of 0.135 mL. […] The kinase concentration in the eluates was measured by qPCR.
Sequence of JAK2 (O60674 whole entry): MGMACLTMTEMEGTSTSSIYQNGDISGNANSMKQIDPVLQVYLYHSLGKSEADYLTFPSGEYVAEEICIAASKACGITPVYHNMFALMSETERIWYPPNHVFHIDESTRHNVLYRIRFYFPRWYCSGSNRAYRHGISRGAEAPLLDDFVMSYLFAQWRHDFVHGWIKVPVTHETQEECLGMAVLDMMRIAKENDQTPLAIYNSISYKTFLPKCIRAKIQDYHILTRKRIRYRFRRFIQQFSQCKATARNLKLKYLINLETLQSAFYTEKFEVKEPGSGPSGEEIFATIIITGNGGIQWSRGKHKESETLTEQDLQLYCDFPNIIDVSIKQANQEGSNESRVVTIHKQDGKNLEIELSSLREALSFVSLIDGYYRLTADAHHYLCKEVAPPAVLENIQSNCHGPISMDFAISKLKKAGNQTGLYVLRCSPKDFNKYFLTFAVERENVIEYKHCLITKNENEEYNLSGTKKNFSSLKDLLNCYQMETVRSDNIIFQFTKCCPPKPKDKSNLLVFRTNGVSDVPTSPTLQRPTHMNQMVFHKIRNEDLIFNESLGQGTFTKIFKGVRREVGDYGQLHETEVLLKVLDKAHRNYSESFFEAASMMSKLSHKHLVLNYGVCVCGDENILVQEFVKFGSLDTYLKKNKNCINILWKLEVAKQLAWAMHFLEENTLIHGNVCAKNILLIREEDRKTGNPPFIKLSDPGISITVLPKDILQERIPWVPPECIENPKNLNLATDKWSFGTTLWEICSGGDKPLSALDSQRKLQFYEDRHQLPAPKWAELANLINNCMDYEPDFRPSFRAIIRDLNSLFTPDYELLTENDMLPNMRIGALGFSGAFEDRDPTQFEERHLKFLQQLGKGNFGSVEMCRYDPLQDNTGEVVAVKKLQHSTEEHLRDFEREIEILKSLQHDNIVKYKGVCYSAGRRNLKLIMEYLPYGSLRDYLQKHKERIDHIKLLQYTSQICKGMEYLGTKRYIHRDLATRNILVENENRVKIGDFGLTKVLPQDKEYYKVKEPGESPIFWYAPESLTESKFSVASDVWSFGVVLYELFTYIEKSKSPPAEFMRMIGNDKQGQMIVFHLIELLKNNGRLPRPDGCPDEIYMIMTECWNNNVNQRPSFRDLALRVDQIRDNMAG

For orientation: IC50 means the midpoint of a concentration-inhibition curve. A word on the Kd: it is the free concentration of one partner at which half of the binding sites on the other are occupied at equilibrium, for simple one-to-one binding. High values mean lower affinity, low ones higher affinity.

Sequence of TRKA (P04629 33-796): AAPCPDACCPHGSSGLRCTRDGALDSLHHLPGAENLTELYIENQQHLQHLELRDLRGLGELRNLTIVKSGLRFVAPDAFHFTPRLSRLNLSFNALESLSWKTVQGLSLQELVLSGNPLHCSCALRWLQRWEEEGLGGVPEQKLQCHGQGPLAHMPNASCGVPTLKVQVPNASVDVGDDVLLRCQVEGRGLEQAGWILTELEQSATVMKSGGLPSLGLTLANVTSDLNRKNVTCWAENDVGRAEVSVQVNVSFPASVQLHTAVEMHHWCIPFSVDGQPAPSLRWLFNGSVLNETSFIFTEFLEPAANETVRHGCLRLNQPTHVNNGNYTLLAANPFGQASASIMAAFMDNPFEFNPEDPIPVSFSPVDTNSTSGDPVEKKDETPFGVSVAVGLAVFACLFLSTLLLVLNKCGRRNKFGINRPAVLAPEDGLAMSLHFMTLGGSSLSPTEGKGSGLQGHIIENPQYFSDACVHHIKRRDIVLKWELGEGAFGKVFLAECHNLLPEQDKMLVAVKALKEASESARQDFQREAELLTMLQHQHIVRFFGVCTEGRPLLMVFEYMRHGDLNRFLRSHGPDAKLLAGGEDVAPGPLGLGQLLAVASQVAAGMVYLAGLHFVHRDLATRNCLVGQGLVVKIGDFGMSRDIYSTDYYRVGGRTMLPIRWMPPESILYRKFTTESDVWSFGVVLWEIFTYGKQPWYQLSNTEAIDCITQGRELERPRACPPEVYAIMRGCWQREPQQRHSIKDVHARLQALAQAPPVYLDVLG

For `CN1Cc2cc(F)ccc2OCCNC(=O)c2cnc3ccc1nn23` [Example 42, 10-fluoro-7-methyl-7,8,15,16-tetrahydro-3,6-ethenoimidazo[5,1-f][1,4,7,8,10]benzoxatetraazacyclotridecin-17(14H)-one], the half-inhibitory concentration (IC50) in test [1] turned out to be 3400 nM; in test [2] it was 4 nM; in test [3], 2000 nM. On TRKA, this compound displayed a Kd of 0.088 nM.
With `CN1Cc2ccccc2OCCNC(=O)c2cnn3ccc1nc23` [Example 49, 14-methyl-6,7,13,14-tetrahydro-1,15-ethenopyrazolo[4,3-f][1,4,8,10]benzoxatriazacyclotridecin-4(5H)-one], the concentration for half-maximal inhibition (IC50) in test [1] amounted to 3900 nM; in test [2] it was 6.7 nM; in test [3], 7000 nM. The results for the dissociation constant Kd on JAK2 and at TRKA were 24 nM and 0.14 nM, respectively.
Regarding `O=C1NCCOc2ccc(F)cc2CNc2ccn3ncc1c3n2` [Example 50, 11-fluoro-6,7,13,14-tetrahydro-1,15-ethenopyrazolo[4,3-f][1,4,8,10]benzoxatriazacyclotridecin-4(5H)-one], the results for the IC50 in test [1], in test [2] and in test [3] were 4100 nM, 74 nM and 6000 nM, respectively. In addition, the Kd on JAK2 stood at 0.57 nM; on TRKA, 0.2 nM.
For the compound `C[C@H]1CNC(=O)c2cnn3ccc(nc23)N(C)Cc2cc(F)ccc2O1` [Example 97, (7S)-11-fluoro-7,14-dimethyl-6,7,13,14-tetrahydro-1,15-ethenopyrazolo[4,3-f][1,4,8,10]benzoxatriazacyclotridecin-4(5H)-one], the IC50 in test [1] amounted to 1420 nM; in test [2], 0.3 nM; in test [3] it was 6500 nM.
Consider `CN1Cc2cc(F)ccc2S(=O)(=O)CCNC(=O)c2cnn3ccc1nc23` [Example 107, 11-fluoro-14-methyl-6,7,13,14-tetrahydro-1,15-ethenopyrazolo[4,3-f][1,4,8,10]benzothiatriazacyclotridecin-4(5H)-one 8,8-dioxide], for which the IC50 in test [1] was above 10000 nM; in test [2] it was 75.6 nM; in test [3], 3000 nM.
The corresponding values for `C[C@@H]1CNC(=O)c2cnn3ccc(nc23)N(C)Cc2cc(F)ccc2O1` [Example 94, (7R)-11-fluoro-7,14-dimethyl-6,7,13,14-tetrahydro-1,15-ethenopyrazolo[4,3-f][1,4,8,10]benzoxatriazacyclotridecin-4(5H)-one] are above 10000 nM, 0.2 nM and above 10000 nM.
For `C[C@H]1CNC(=O)c2cnn3ccc(nc23)CCc2cc(F)ccc2O1` [Example 108, (7S)-11-fluoro-7-methyl-6,7,13,14-tetrahydro-1,15-ethenopyrazolo[4,3-f][1,4,8]benzoxadiazacyclotridecin-4(5H)-one], the results for the IC50 in test [1], in test [2] and in test [3] were 619 nM, 3.6 nM and 870 nM, respectively.
On to `CN1Cc2cc(F)ccc2[S+]([O-])CCNC(=O)c2cnn3ccc1nc23` (centres unmarked) [Example 106, 11-fluoro-14-methyl-6,7,13,14-tetrahydro-1,15-ethenopyrazolo[4,3-f][1,4,8,10]benzothiatriazacyclotridecin-4(5H)-one 8-oxide], for which the IC50 in test [1] is above 10000 nM; in test [2] it was 176 nM; in test [3], above 10000 nM.
In the case of `C[C@H]1Nc2ccn3ncc(c3n2)C(=O)NC[C@@H](O)COc2ccc(F)cc21` [Example 90, (7R,14R)-12-fluoro-7-hydroxy-14-methyl-5,6,7,8,14,15-hexahydro-4H-1,16-ethenopyrazolo[4,3-g][1,5,9,11]benzoxatriazacyclotetradecin-4-one], the half-inhibitory concentration (IC50) turned out to be 1650 nM in test [1], 1.8 nM in test [2] and 5910 nM in test [3].
Consider `CC1COc2ccc(F)cc2CN(C)c2ccn3ncc(c3n2)C(=O)N1` (centres unmarked) [Example 48, 11-fluoro-6,14-dimethyl-6,7,13,14-tetrahydro-1,15-ethenopyrazolo[4,3-f][1,4,8,10]benzoxatriazacyclotridecin-4(5H)-one], for which the results for the IC50 in test [1], in test [2] and in test [3] were 6000 nM, 62 nM and 6000 nM, respectively.
As for `O=C1NCCOc2ccc(F)cc2C(C2CC2)Nc2ccn3ncc1c3n2` (centres unmarked) [Example 66, 13-cyclopropyl-11-fluoro-6,7,13,14-tetrahydro-1,15-ethenopyrazolo[4,3-f][1,4,8,10]benzoxatriazacyclotridecin-4(5H)-one], the figures for the IC50 in test [1], in test [2] and in test [3] were 1900 nM, 17.5 nM and 1540 nM, respectively.
For `CC(C)C1Nc2ccn3ncc(c3n2)C(=O)NCCOc2ccc(F)cc21` (centres unmarked) [Example 67, 11-fluoro-13-(propan-2-yl)-6,7,13,14-tetrahydro-1,15-ethenopyrazolo[4,3-f][1,4,8,10]benzoxatriazacyclotridecin-4(5H)-one], the half-maximal inhibitory concentration (IC50) amounted to 1200 nM in test [1], 2.8 nM in test [2] and 1230 nM in test [3].
With `C[C@H]1Nc2ccn3ncc(c3n2)C(=O)NC[C@H](O)COc2ccc(F)cc21` [Example 91, (7S,14R)-12-fluoro-7-hydroxy-14-methyl-5,6,7,8,14,15-hexahydro-4H-1,16-ethenopyrazolo[4,3-g][1,5,9,11]benzoxatriazacyclotetradecin-4-one], the results for the IC50 in test [1], in test [2] and in test [3] were 961 nM, 1.8 nM and 1540 nM, respectively.
Turning to `O=C1NCCOc2ccc(F)cc2C(c2ccccc2)Nc2ccn3ncc1c3n2` (centres unmarked) [Example 88, 11-fluoro-13-phenyl-6,7,13,14-tetrahydro-1,15-ethenopyrazolo[4,3-f][1,4,8,10]benzoxatriazacyclotridecin-4(5H)-one], the values for the 50% inhibitory concentration (IC50) in test [1], in test [2] and in test [3] were 3130 nM, 50.4 nM and 1900 nM, respectively.
In the same order, the values of `CC(C)(O)CN1Cc2cc(F)ccc2OCCNC(=O)c2cnn3ccc1nc23` [Example 101, 11-fluoro-14-(2-hydroxy-2-methylpropyl)-6,7,13,14-tetrahydro-1,15-ethenopyrazolo[4,3-f][1,4,8,10]benzoxatriazacyclotridecin-4(5H)-one] are above 10000 nM, above 1000 nM and 6000 nM.
In the same order, the values of `CN1Cc2cc(F)ccc2SCCNC(=O)c2cnn3ccc1nc23` [Example 104, 11-fluoro-14-methyl-6,7,13,14-tetrahydro-1,15-ethenopyrazolo[4,3-f][1,4,8,10]benzothiatriazacyclotridecin-4(5H)-one] are 5750 nM, 0.3 nM and 2350 nM.
In the same order, the values of `O=C1NCCOc2ccc(F)cc2CN(CCO)c2ccn3ncc1c3n2` [Example 47, 11-fluoro-14-(2-hydroxyethyl)-6,7,13,14-tetrahydro-1,15-ethenopyrazolo[4,3-f][1,4,8,10]benzoxatriazacyclotridecin-4(5H)-one] are above 10000 nM, 31 nM and above 10000 nM.
Take `CCCN1Cc2cc(F)ccc2OCCNC(=O)c2cnn3ccc1nc23` [Example 44, 11-fluoro-14-propyl-6,7,13,14-tetrahydro-1,15-ethenopyrazolo[4,3-f][1,4,8,10]benzoxatriazacyclotridecin-4(5H)-one]: the figures for the half-maximal inhibitory concentration (IC50) in test [1], in test [2] and in test [3] were 4100 nM, 9.9 nM and 2030 nM, respectively.
For the compound `CCC1Nc2ccn3ncc(c3n2)C(=O)NCCOc2ccc(F)cc21` (centres unmarked) [Example 85, 13-ethyl-11-fluoro-6,7,13,14-tetrahydro-1,15-ethenopyrazolo[4,3-f][1,4,8,10]benzoxatriazacyclotridecin-4(5H)-one], the results for the half-maximal inhibitory concentration (IC50) in test [1], in test [2] and in test [3] were 1080 nM, 0.9 nM and 928 nM, respectively.
